Assay results as given in patent publication US20020082249A1, “Prodrugs of aspartyle protease inhibitors” (priority 1997, published 2002).

Key:
[1] = Pharmacokinetics in Sprague-Dawley rats following single oral dose; conditions: for AUC: rats; for Cmax / half-life: both, Sprague-Dawley, rat, in vivo, po
[2] = Similar oral pharmacokinetic study on dogs (solid capsule and solution formulations); conditions: dog, in vivo, 17 mg/kg

compound 229 detected in blood samples ([1]; after oral administration, first time point blood sample or later samples, suggests first pass metabolism to VX-478)	delivery of VX-478, aqueous dose of 229 versus VX-478 formulations ([1]; aqueous dose of compound 229 compared with the two non-aqueous formulations used for VX-478)	bioavailability, aqueous solution versus other vehicles ([1]; oral administration of compound 229 as an aqueous solution, in comparison to the other vehicles studied)	AUC ([1]; compound 229 PO, 40 mg/Kg molar equiv. of VX-478, vehicle H2O:PG:EtOH 5:4:1) [ug*hr/m1]	AUC ([1]; compound 229 PO, 40 mg/Kg molar equiv. of VX-478, vehicle H2O, VX-478 measured in plasma) [ug*hr/m1]	AUC ([1]; compound 229 PO, 40 mg/Kg molar equiv. of VX-478, vehicle PEG 400) [ug*hr/m1]	AUC ([1]; compound 229 PO, 40 mg/Kg molar equiv. of VX-478, vehicle TPGS/PEG 400/PG) [ug*hr/m1]	SMILES	Cmax ([1]; 41 mg/kg) [µM]	half-life ([1]; 41 mg/kg) [h]	Cmax ([1]; 50 mg/kg) [µM]	half-life ([1]; 50 mg/kg) [h]	AUC ([1]; VX-478 41 mg/Kg PO, vehicle 33% TPGS/PEG 400/PG) [ug*hr/m1]	AUC ([1]; VX-478 50 mg/Kg PO, vehicle 12.5% TPGS/PEG 400/PG) [ug*hr/m1]	AUC [2] [ng·h/mL]	Cmax [2] [ng/mL]	Tmax [2] [h]
none of that compound was detected	equivalence in delivery	improved bioavailability	10.6	11.7	7.4	8.2	CC(C)CN(C[C@@H](OP(=O)(O)O)[C@H](Cc1ccccc1)NC(=O)O[C@H]1CCOC1)S(=O)(=O)c1ccc(N)cc1 [Compound 229]									
							CC(C)CN(C[C@@H](O)[C@H](Cc1ccccc1)NC(=O)O[C@H]1CCOC1)S(=O)(=O)c1ccc(N)cc1 [VX-478]	14	2.5	6	2.2	29.6	16.2	23500 ± 7400	6800 ± 1100	1 ± 0.8
